Results taken from paper PMC8113459, “Selective inhibition of cullin 3 neddylation through covalent targeting DCN1 protects mice from acetaminophen-induced liver toxicity” (Nature Communications, 2021).
Values joined by “and” are separate entries in the source; they are usually repeats but may differ in a detail not shown here. Identical values can stand only once. Each block holds one molecule with its values, some of them ahead of it.

Experiments:
DCN1 [1] = target: T1, DCN1 (Homo sapiens, UniProt Q96GG9); experiment: Intact-protein mass spectrometric analysis, Method B (DCN1); type: binding; settings: 1 h incubation, 100 nM protein
T1 sequence (Q96GG9 whole entry, the tested form may be a part): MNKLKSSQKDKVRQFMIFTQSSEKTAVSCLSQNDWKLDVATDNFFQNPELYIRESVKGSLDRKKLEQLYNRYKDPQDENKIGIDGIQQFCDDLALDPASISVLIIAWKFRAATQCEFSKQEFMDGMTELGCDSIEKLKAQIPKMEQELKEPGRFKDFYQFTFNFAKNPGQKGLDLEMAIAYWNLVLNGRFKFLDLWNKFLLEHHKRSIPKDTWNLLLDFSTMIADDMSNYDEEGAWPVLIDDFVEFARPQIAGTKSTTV
Procedure: Method B: Recombinant DCN1 or DCN3 protein (100 nM in 25 mM Tris 7.5, 200 mM NaCl, 1 mM DTT buffer) was incubated with 1.2-fold excess of the DCN1 inhibitors at 37 °C for 10 min, 1 h, or 3 h. Following incubation, the protein was analyzed by LC–MS (Agilent Q-TOF 6545) under the following conditions: fragmentor voltage, 300 V; skimmer voltage, 75 V; nozzle voltage, 100 V; sheath gas temperature, 350 °C; and drying gas temperature, 325 °C. MassHunter Qualitative Analysis software (Agilent) was used to analyze the data. Intact protein masses were obtained using the maximum entropy deconvolution algorithm. The mass spectrometry data in Supplementary Figs. 14–17 were generated by Method B.

DCN1 [2] = target: T1, DCN1; experiment: Competitive FP binding assay
Procedure: Competitive FP binding assay was performed as previously described. The IC50 and Ki values of DI-1548 and DI-1548DD were determined in competitive binding experiments. Mixtures of preincubated protein/probe complex solution in the assay buffer (196 μL) and compounds in DMSO (4 μL) were added into assay plates which were incubated at room temperature for 30 min with gentle shaking. The concentrations of DCN1 protein and fluorescent probe were 50 and 5 nM, respectively. […] FP values in millipolarization units were measured using the Infinite M-1000 plate reader (Tecan U.S., Research Triangle Park, NC) in Microfluor 1 96-well, black, round-bottom plates (Thermo Fisher Scientific, Waltham, MA) at an excitation wavelength of 485 nm and an emission wavelength of 530 nm. IC50 values were determined by nonlinear regression fitting of the competition curves using the dose–response inhibition equation (four parameters, variable slopes) included in the Prism/GraphPad software. Ki values were calculated using methods described previously.

HO-1 protein = experiment: Western blot, HO-1 protein in THLE2 cells; type: cell-based, human; settings: THLE2, Fig. 6b
Procedure: Western blotting was performed as described previously. Treated cells were lysed by RIPA buffer supplemented with protease inhibitor. The expression level of indicated proteins was examined by immunoblotting analysis and GAPDH was used as the loading control. Antibodies were purchased commercially: cullin 1 (sc-17775, 1:500 dilution) and cullin 2 (sc-166506, 1:500 dilution) from Santa Cruz Biotech (Santa Cruz, CA); cullin 4A (PA5-14542, 1:1000 dilution), cullin 4B (PA5-50647, 1:1000 dilution), and DCN3 (DCUN1D3, PA5-44000, 1:1000 dilution) from Thermo Fisher Scientific (Wayne, MI); cullin 3 (2759, 1:1000), NRF2 (12721, 1:1000 dilution), HO-1 (70081, 1:1000 dilution), and Bim (2819, 1:1000 dilution) from Cell Signaling Technology (Boston, MA); DCN1 (GWB-E3D700, 1:1000 dilution) from GenWay Biotech (San Diego, CA); and cullin 5 (A302-173A, 1:500 dilution) from Bethyl Labs (Montgomery, TX). Results are representative of two independent experiments.

[3] = system: APAP-induced liver injury; experiment: APAP-induced liver injury: alanine aminotransferase (ALT) level; type: in vivo, mouse; settings: for reduction of the elevated ALT level induced by 400 mg/kg of APAP: 24 h time point
Procedure: The in vivo studies were performed under animal protocols (PRO00007499) and (PRO00006638) approved by the Institutional Animal Care & Use Committee of the University of Michigan, in accordance with the recommendations in the Guide for the Care and Use of Laboratory Animals of the National Institutes of Health. C57BL/6 WT mice (~8 weeks, male, normal chow) were purchased from the Jackson Laboratory and randomly divided into eight groups (8–9 mice per group) treated (IP) as follows: phosphate-buffered saline vehicle once per day for 3 days (G1), APAP alone a single dose at 400 mg/kg on day 1 (G2), DI-1859 alone 25 mg/kg once per day for 3 days (G3), DI-1859 alone 50 mg/kg once per day for 3 days (G4), pretreatment (1 day before the APAP administration) with DI-1859 at 25 mg/kg once per day for 3 days followed with APAP at 400 mg/kg on day (G5), pretreatment (1 day before the APAP administration) with DI-1859 at 50 mg/kg once per day for 3 days followed with APAP at 400 mg/kg on day (G6), APAP a single dose at 400 mg/kg (3 h before the first DI-1859 administration) followed with DI-1859 at 25 mg/Kg once per day for 3 days (G7), and APAP a single dose at 400 mg/kg (3 h before the first DI-1859 administration) followed with DI-1859 at 50 mg/Kg once per day for 3 days (G8).
To induce acute liver injury, animals received PBS or APAP (400 mg/kg, sigma, A7085) through I.P. injection at 12 p.m. and were sacrificed 48 h afterward. To examine the protective effect of DI-1859 (groups 5 and 6), animals were I.P. injected with compound for 3 consecutive days (9 a.m. on each day, starting 1 day before APAP administration). To examine the restorative effect of DI-1859 (groups 7 and 8), animals were I.P. injected with compound 3 h after APAP administration followed by two additional treatments (9 a.m. on the next 2 days). Body weight and blood glucose level measurement, along with blood sample collection, were performed at 12 p.m. on each day.
Blood glucose levels were determined using glucometers (Bayer Corp., Pittsburgh, PA). Plasma ALT activity was measured using an ALT reagent set (Pointe Scientific Inc., Canton, MI).

- covalent complex formation with DCN1 (DCN1 [1]): rapid and complete formation
- FP signal of the competitive binding curve (DCN1 [2]; Concentration (nM) 0.016935, duplicates): 44.2 and 44.7
- FP signal of the competitive binding curve (DCN1 [2]; Concentration (nM) 0.050805, duplicates): 43.5 and 45.8
- FP signal of the competitive binding curve (DCN1 [2]; Concentration (nM) 0.152416, duplicates): 44.1 and 44.8
- FP signal of the competitive binding curve (DCN1 [2]; Concentration (nM) 0.457247, duplicates): 43.8 and 44
- FP signal of the competitive binding curve (DCN1 [2]; Concentration (nM) 1.37174, duplicates): 41.3
- FP signal of the competitive binding curve (DCN1 [2]; Concentration (nM) 4.11523, duplicates): 32.5 and 31.9
- FP signal of the competitive binding curve (DCN1 [2]; Concentration (nM) 12.3457, duplicates): 17.8 and 17.9
- FP signal of the competitive binding curve (DCN1 [2]; Concentration (nM) 37.037, duplicates): 15.7 and 15.4
- FP signal of the competitive binding curve (DCN1 [2]; Concentration (nM) 111.111, duplicates): 14.3 and 14.5
- FP signal of the competitive binding curve (DCN1 [2]; Concentration (nM) 333.333, duplicates): 15.3 and 15.7
- FP signal of the competitive binding curve (DCN1 [2]; Concentration (nM) 1000, duplicates): 16.2 and 15.8
- IC50 (DCN1 [2]; DCN1 50 nM, probe 5 nM, 30 min): 4.6 nM
- Ki (DCN1 [2]; DCN1 50 nM, probe 5 nM, 30 min): < 1 nM
SMILES: C=C(CN1CCOCC1)C(=O)NC[C@@H](NC(=O)[C@H](Cc1nc2ccc(C(C)C)cc2s1)NC(=O)CC)C1CCCCC1 [DI-1548]

SMILES: C=C(CN(C)C)C(=O)NC[C@@H](NC(=O)[C@H](Cc1nc2ccc(C(C)C)cc2s1)NC(=O)CC)C1CCCCC1 [DI-1859]
- HO-1 protein level (HO-1 protein): dose dependently upregulates
- ALT(IU/L) mean ([3]; G3 PBS + Low, Time 0 hr): 26.4101 IU/L
- ALT(IU/L) mean ([3]; G3 PBS + Low, Time 24 hr): 28.0781 IU/L
- ALT(IU/L) mean ([3]; G4 PBS + High, Time 0 hr): 28.6341 IU/L
- ALT(IU/L) mean ([3]; G4 PBS + High, Time 24 hr): 23.9081 IU/L
- ALT(IU/L) mean ([3]; G5 APAP + Low-pre, Time 0 hr): 32.3717 IU/L
- ALT(IU/L) mean ([3]; G5 APAP + Low-pre, Time 24 hr): 2856 IU/L
- ALT(IU/L) mean ([3]; G5 APAP + Low-pre, Time 48 hr): 171.99 IU/L
- ALT(IU/L) mean ([3]; G6 APAP + H-pre, Time 0 hr): 30.6419 IU/L
- ALT(IU/L) mean ([3]; G6 APAP + H-pre, Time 24 hr): 292.828 IU/L
- ALT(IU/L) mean ([3]; G6 APAP + H-pre, Time 48 hr): 49.2459 IU/L
- ALT(IU/L) mean ([3]; G7 APAP + Low-post, Time 0 hr): 30.889 IU/L
- ALT(IU/L) mean ([3]; G7 APAP + Low-post, Time 24 hr): 1341.82 IU/L
- ALT(IU/L) mean ([3]; G7 APAP + Low-post, Time 48 hr): 134.182 IU/L
- ALT(IU/L) mean ([3]; G8 APAP + High-post, Time 0 hr): 29.1592 IU/L
- ALT(IU/L) mean ([3]; G8 APAP + High-post, Time 24 hr): 1771.79 IU/L
- ALT(IU/L) mean ([3]; G8 APAP + High-post, Time 48 hr): 227.59 IU/L
- reduction of the elevated ALT level induced by 400 mg/kg of APAP ([3]; prevention setting (G5), 25 mg/kg): 20%
- reduction of the elevated ALT level induced by 400 mg/kg of APAP ([3]; prevention setting (G6), 50 mg/kg): 90% and > 90%
- reduction of the APAP-induced ALT elevations ([3]; treatment setting (G7), 25 mg/kg after APAP): ~ 50% and 50%
- reduction of the APAP-induced ALT elevations ([3]; treatment setting (G8), 50 mg/kg after APAP): ~ 50% and 50%
